# Measured values as given in patent publication EP0238060B1, “Cephalosporin derivatives, processes for their preparation and antibacterial agents” (Banyu Pharmaceutical Co., Ltd., priority 1986, dated 1987).
# Columns and labels:
# Assay in all cases: In vitro antibacterial activity, agar plate dilution method (MIC)
# E.cloacae 963 = type: cell-based; details: Enterobacter cloacae, 963, 16 h, read-out: Minimum Inhibitory Concentration (MIC: µg/ml)
# Protocol: (§1) The in vitro antibacterial activities of the compounds of the present invention against various microorganisms, were measured by the following agar plate dilution method. One platinum loopfull of each test microorganism incubated overnight in Mueller Hinton broth, was inoculated to Mueller Hinton agar (inoculum size: l0⁶ CFU/ml). Such culture media containing various antibiotics in various concentrations were prepared. After incubation at 37°C for l6 hours, the minimum inhibitory concentrations (MIC: µg/ml) were measured. As comparative compounds, Cefotaxime, Ceftazidime and the compounds of Reference Examples l to 4 were employed.
# S.aureus 209P NIHJ-JC1 = type: cell-based; details: Staphylococcus aureus, 16 h, read-out: Minimum Inhibitory Concentration (MIC: µg/ml)
# Protocol: as §1
# E.coli CSH(RE45) = type: cell-based; details: Escherichia coli, 16 h, read-out: Minimum Inhibitory Concentration (MIC: µg/ml)
# Protocol: as §1
# Ps.aeruginosa IFO3445 = type: cell-based; details: Pseudomonas aeruginosa; Ps.aeruginosa IFO3445; Mueller Hinton agar, inoculum 10⁶ CFU/ml, 37°C, 16 hours; read-out: Minimum Inhibitory Concentration (MIC: µg/ml)
# Protocol: as §1
# E.coli CSH2 (RK1) = type: cell-based; details: Escherichia coli, 16 h, read-out: Minimum Inhibitory Concentration (MIC: µg/ml)
# Protocol: as §1
# Ps.aeruginosa AKR17 = type: cell-based; details: Pseudomonas aeruginosa; Ps.aeruginosa AKR17; Mueller Hinton agar, inoculum 10⁶ CFU/ml, 37°C, 16 hours; read-out: Minimum Inhibitory Concentration (MIC: µg/ml)
# Protocol: as §1
# M.luteus ATCC9341 = type: cell-based; details: Micrococcus luteus, ATCC9341, 16 h, read-out: Minimum Inhibitory Concentration (MIC: µg/ml)
# Protocol: as §1
# E.coli GN5482 = type: cell-based; details: Escherichia coli, GN5482, 16 h, read-out: Minimum Inhibitory Concentration (MIC: µg/ml)
# Protocol: as §1
# P.vulgaris HX-19 = type: cell-based; details: Proteus vulgaris, HX19, 16 h, read-out: Minimum Inhibitory Concentration (MIC: µg/ml)
# Protocol: as §1
# K.pneumoniae No. 42 = type: cell-based; details: Klebsiella pneumoniae, NO.42, 16 h, read-out: Minimum Inhibitory Concentration (MIC: µg/ml)
# Protocol: as §1
# E.cloacae Nek 39 = type: cell-based; details: Enterobacter cloacae, NEK39, 16 h, read-out: Minimum Inhibitory Concentration (MIC: µg/ml)
# Protocol: as §1
# A.calcoaceticus No. 4 = type: cell-based; details: Acinetobacter calcoaceticus, NO.4, 16 h, read-out: Minimum Inhibitory Concentration (MIC: µg/ml)
# Protocol: as §1
# C.freundii GN346/16 = type: cell-based; details: Citrobacter freundii, GN346, 16 h, read-out: Minimum Inhibitory Concentration (MIC: µg/ml)
# Protocol: as §1
# C.freundii GN346 = type: cell-based; details: Citrobacter freundii, GN346, 16 h, read-out: Minimum Inhibitory Concentration (MIC: µg/ml)
# Protocol: as §1
# K.oxytoca GN10650 = type: cell-based; details: Klebsiella oxytoca, GN10650, 16 h, read-out: Minimum Inhibitory Concentration (MIC: µg/ml)
# Protocol: as §1
# S.marcescens IAM 1184 = type: cell-based; details: Serratia marcescens, IAM1184, 16 h, read-out: Minimum Inhibitory Concentration (MIC: µg/ml)
# Protocol: as §1
# E.coli NIHJ JC2 = type: cell-based; details: Escherichia coli, NIHJJC2, 16 h, read-out: Minimum Inhibitory Concentration (MIC: µg/ml)
# Protocol: as §1
# S.epidermidis IAM12012 = type: cell-based; details: Staphylococcus epidermidis, IAM12012, 16 h, read-out: Minimum Inhibitory Concentration (MIC: µg/ml)
# Protocol: as §1
# S.marcescens No. 16-2 = type: cell-based; details: Serratia marcescens, NO.162, 16 h, read-out: Minimum Inhibitory Concentration (MIC: µg/ml)
# Protocol: as §1
# Ps.aeruginosa AK 109 = type: cell-based; details: Pseudomonas aeruginosa, AK109, 16 h, read-out: Minimum Inhibitory Concentration (MIC: µg/ml)
# Protocol: as §1
# M.morganii GN5407 = type: cell-based; details: Morganella morganii, GN5407, 16 h, read-out: Minimum Inhibitory Concentration (MIC: µg/ml)
# Protocol: as §1
# P.vulgaris No. 33 = type: cell-based; details: Proteus vulgaris, NO.33, 16 h, read-out: Minimum Inhibitory Concentration (MIC: µg/ml)
# Protocol: as §1
# S.aureus BB5703 = type: cell-based; details: Staphylococcus aureus, BB5703, 16 h, read-out: Minimum Inhibitory Concentration (MIC: µg/ml)
# Protocol: as §1
# K.pneumoniae PCI-602 = type: cell-based; details: Klebsiella pneumoniae, PCI602, 16 h, read-out: Minimum Inhibitory Concentration (MIC: µg/ml)
# Protocol: as §1
# S.aureus JS1 = type: cell-based; details: Staphylococcus aureus, JS1, 16 h, read-out: Minimum Inhibitory Concentration (MIC: µg/ml)
# Protocol: as §1
# Ps.cepacia 23 = type: cell-based, Pseudomonas cepacia; details: Burkholderia cepacia, 23, 16 h, read-out: Minimum Inhibitory Concentration (MIC: µg/ml)
# Protocol: as §1
# Ps.maltophilia GN 12873 = type: cell-based, Pseudomonas maltophilia; details: Stenotrophomonas maltophilia, GN12873, 16 h, read-out: Minimum Inhibitory Concentration (MIC: µg/ml)
# Protocol: as §1
compound,measurement,setting,value
"CC(C)(O/N=C(\C(=O)N[C@@H]1C(=O)N2C(C(=O)[O-])=C(C[n+]3ccccc3)CS[C@H]12)c1csc(N)n1)C(=O)O [Ceftazidime, reference compound]",MIC,E.cloacae 963,0.2 µg/mL
same,MIC,S.aureus 209P NIHJ-JC1,6.25 µg/mL
same,MIC,E.coli CSH(RE45),0.1 µg/mL
same,MIC,Ps.aeruginosa IFO3445,0.39 µg/mL
same,MIC,E.coli CSH2 (RK1),0.1 µg/mL
same,MIC,Ps.aeruginosa AKR17,> 100 µg/mL
same,MIC,M.luteus ATCC9341,1.56 µg/mL
same,MIC,E.coli GN5482,3.12 µg/mL
same,MIC,P.vulgaris HX-19,0.025 µg/mL
same,MIC,K.pneumoniae No. 42,0.39 µg/mL
same,MIC,E.cloacae Nek 39,1.56 µg/mL
same,MIC,A.calcoaceticus No. 4,6.25 µg/mL
same,MIC,C.freundii GN346/16,0.2 µg/mL
same,MIC,C.freundii GN346,25 µg/mL
same,MIC,K.oxytoca GN10650,0.2 µg/mL
same,MIC,S.marcescens IAM 1184,0.025 µg/mL
same,MIC,E.coli NIHJ JC2,0.2 µg/mL
same,MIC,S.epidermidis IAM12012,3.12 µg/mL
same,MIC,S.marcescens No. 16-2,1.56 µg/mL
same,MIC,Ps.aeruginosa AK 109,1.56 µg/mL
same,MIC,M.morganii GN5407,0.1 µg/mL
same,MIC,P.vulgaris No. 33,0.05 µg/mL
same,MIC,S.aureus BB5703,25 µg/mL
same,MIC,K.pneumoniae PCI-602,0.125 µg/mL
same,MIC,S.aureus JS1,50 µg/mL
same,MIC,Ps.cepacia 23,1.56 µg/mL
same,MIC,Ps.maltophilia GN 12873,100 µg/mL
